Laboratory results from article PMC8964227, “IP-Se-06, a Selenylated Imidazo[1,2-a]pyridine, Modulates Intracellular Redox State and Causes Akt/mTOR/HIF-1α and MAPK Signaling Inhibition, Promoting Antiproliferative Effect and Apoptosis in Glioblastoma Cells” (Oxidative Medicine and Cellular Longevity, 2022).

Assays:
Assay type in all cases: cell-based, human
cytochrome c = experiment: Western blotting cytochrome c (cytosolic fraction), A172 cells; settings: 1 μM, vs control
Procedure: (§1) After treatment with IP-Se-06 (1 μM) for 48 h, A172 cells were harvested with a lysis buffer. The lysates were collected, and the total proteins present in the lysates were quantified according to Lowry. Proteins present in the cell lysates (30 μg) were subjected to SDS-polyacrylamide gel electrophoresis, followed by electroblotting to polyvinylidene fluoride (PVDF) membranes. Nonspecific binding was blocked by incubating the membrane with skimmed milk in TBS buffer containing 0.1% Tween 20 (TBS-T) for 1 h. After primary antibody incubation, membranes were incubated with appropriate HRP-conjugated secondary antibodies for 1 h at room temperature. Immunodetection was performed using an enhanced chemiluminescence (ECL) detection kit. Protein bands were visualized using ChemiDoc MP Imaging System (Bio-Rad) and quantified by densitometry using the freeware ImageJ by Wayne Rasband from the National Institute of Health (USA).

[1] = tested on: reduced glutathione (GSH); experiment: Reduced glutathione level in A172 cells (o-phthalaldehyde); settings: 1 μM, 6 h, vs control
Procedure: To determine thioredoxin reductase (TrxR) activity and levels of reduced glutathione (GSH), glioblastoma cells were plated (4 × 10^5/well) into 12-well plates. At confluence, the cells were exposed at low concentration to IP-Se-06 (1 μM) for 6 h. After treatment time, cells were washed twice with PBS and resuspended with PBS/Triton 1%, centrifuged at 5000 g for 5 min and the supernatants were used for the determinations. All results were normalized by the protein content using the Bradford method.
GSH was determined according to Hissin and Hilf using the fluorescent probe o-phthalaldehyde, which binds to free -SH groups forming the GS-OPT complex. This complex can be determined by fluorescence excitation at 350 nm and emission at 420 nm. Determinations were expressed in μGSH/μg protein.

A172 cells [2] = experiment: Cell cycle analysis (PI, flow cytometry); settings: 1 μM, 72 h, vs untreated
Procedure: The PI/RNAse solution from the Immunostep® kit (Salamanca, Spain) was used to determine the DNA content of cells of the different phases of cell cycle by flow cytometry using the protocol proposed by the manufacturer. A172 cells were plated on 6-well plates at a density of 2 × 10^5/well until confluence and synchronization with nocodazole (30 ng/mL) for 14 h. The cells were treated with IP-Se-06 (1 μM) for 72 h, carefully washed with PBS, and fixed in cold ethanol (70%) overnight at -20°C. Finally, cells were washed again, resuspended in PI/RNAse solution, and incubated for 15 min at room temperature. Cells were analyzed using a BD FACSCanto II (BD Biosciences) flow cytometer. Data were processed using Flowing Software 2.5.1.

caspase-1 = experiment: Western blotting caspase-1, A172 cells; settings: 1 μM, 48 h, vs control
Procedure: as §1

p53 = experiment: Western blotting p53, A172 cells; settings: 1 μM, vs control
Procedure: as §1

A172 cells [3] = experiment: Mitochondrial membrane potential (TMRE); settings: 1 μM, 6 h, vs control
Procedure: The loss of mitochondrial transmembrane potential was analyzed using the fluorescent probe TMRE according to as proposed by O'Reilly and collaborators, with modifications. A172 cells (4 × 10^5/well) were plated in 12-well plates. After confluence, the cells were treated with IP-Se-06 (1 μM) for 6 h. After treatment, the cells were washed once with HBSS and incubated with TMRE (1 μM) at 37°C for 20 min. Lastly, the cells were washed with HBSS and the fluorescence intensity was measured at excitation peak of 549 nm and emission of 575 nm.

Bcl-xL = experiment: Western blotting Bcl-xL, A172 cells; settings: 1 μM, vs control
Procedure: as §1

A172 cells [4] = experiment: MTT cytotoxicity assay, A172
Procedure: Cell viability after treatments with selenylated imidazo[1,2-a]pyridines (IP-Se-01–IP-Se-10) was analyzed by quantitative colorimetric assay with MTT, according to Mosmann. IP-01, a prototype molecule without the addition of the selenium in its structure, was also tested. A172 and HT-22 cells were cultured in 96-well plates (10^4 cells/well). After confluence, cells were exposed to selenylated imidazo[1,2-a]pyridines (0.1, 1, 10, 100, and 1000 μM) for up to 72 h. After this phase, cell medium was removed and the cells were washed twice with PBS and incubated with MTT solution (0.5 mg/mL) for 2 h. The insoluble formazan was dissolved by adding DMSO (100 μL/well), and colorimetric determination of MTT reduction was measured at 550 nm in a multireader Infinite M200 Tecan. Three independent experiments were conducted, and the results are presented as IC50 (half maximal inhibitory concentration).

HIF-1α = experiment: Immunocytochemistry staining for HIF-1α localization; settings: 1 μM, 48 h
Procedure: A172 cells were treated with IP-Se-06 (1 μM) for 48 h, fixed with paraformaldehyde (4%) for 15 min and washed three times with PBS. The cells were then treated with blocking solution (0.5% BSA in PBS containing 0.3% of triton X-100) for 1 h at room temperature and incubated with rabbit polyclonal primary antibody HIF-1α (Cat. sc-10790, dilution 1 : 500) overnight at 4°C. Following this, the cells were washed three times with PBS and incubated with secondary antibody polyclonal goat anti-rabbit IgG antibody (Cat. AP132P, dilution 1 : 1000) for 1 h. The cell nuclei were stained with DAPI (3 μg/mL). The cell images were acquired from ten randomly chosen fields for each condition using an Olympus IX83 fluorescent microscope.

**Q.** With `COc1ccccc1[Se]c1c(-c2ccccc2)nc2cc(C)ccn12` [IP-Se-06, 3-((2-methoxyphenyl)selanyl)-7-methyl-2-phenylimidazol[1,2-a]pyridine] as the compound, how does the “levels of cytochrome c” value (cytochrome c) read?
**A.** The value was “increased”.

**Q.** And the “levels of GSH” value [1]?
**A.** The value was “significantly decreased”.

**Q.** And the “G2/M phase cell population” value (A172 cells [2])?
**A.** Its value is “decrease”.

**Q.** And the S phase (A172 cells [2])?
**A.** Its S phase is “no significant effect”.

**Q.** What about the “cell population in the G1 phase” value (A172 cells [2]) of the same compound?
**A.** The value was “increased”.

**Q.** What about the “cell proportion in sub-G1 peak” value (A172 cells [2]) of the same compound?
**A.** Its value is “increased”.

**Q.** And the “levels of caspase-1” value (caspase-1)?
**A.** The value was “decreased”.

**Q.** And the “levels of p53” value (p53)?
**A.** The value was “increased”.

**Q.** And the “ΔΨm, TMRE fluorescence intensity” value (A172 cells [3])?
**A.** Its value is “reduced”.

**Q.** And the “levels of Bcl-xL” value (Bcl-xL)?
**A.** Its value is “decreased”.

**Q.** What about the “approximate IC25 value” (A172 cells [4]; A172, concentration used in further experiments) of the same compound?
**A.** The value was ~1000 nM.

**Q.** And the IC50 (A172 cells [4]; Homo sapiens, A 172, 72 h, MTT)?
**A.** Its IC50 is 1800 nM.

**Q.** And the “Selectivity Index (SI)” value (A172 cells [4]; IC50 in normal cell line (HT-22)/IC50 in A172)?
**A.** The value was 36.5.

**Q.** And the HIF-1α localization (HIF-1α)?
**A.** The HIF-1α localization was “seemed not to be translocated to the nucleus”.
